Experimental data: patent US9259408B2, “Use of DHA, EPA or DHA-derived EPA for treating a pathology associated with cellular oxidative damage” (Brudy Technology S.L., priority 2005, dated 2016)

Assays:
[1] = tested on: ARPE-19 cells (retina pigmentary epithelial cells, CRL-2302); assay: ROS generation in ARPE-19 cells under AAPH oxidative stress (DHR123/H2DCFDA); format: cell-based
Method: (§1) The cellular models used were Foreskin cells (undifferentiated epidermal fibroblasts, CRL-2076) and ARPE-19 cells (retina pigmentary epithelial cells, CRL-2302) obtained from the American Type Culture Collection. The cell cultures were kept in suitable growth conditions of temperature (37° C.), CO2 concentration (5%) and humidity (95%) in an incubator specially designed for this purpose. The ARPE-19 cells were maintained in growth up to confluence of 0.3×10^4 cells/cm^2 in culture flasks with DMEM-F12 medium (Biological Industries) supplemented with 10% bovine foetal serum, penicillin antibiotics (100 U/mL), streptomycin (100 μg/mL) and glutamine (Biological Industries). […]
(§2) The ROS level was measured in primary cultures of human skin CRL-2076 fibroblasts and in ARPE-19 retinal epithelial cells by employing the fluorimetric technique using dihydrorodamine 123 (DHR123, Molecular Probes) and 2,7-dichlorofluorescein diacetate (H2DCFDA, Molecular Probes) as fluorescent probes in a continuous system measuring every 30 min until 180 minutes. […] The fluorescence of the oxidised probes (2,7-dichlorofluorescein and rodamine 123) was measured in a Mithras fluorescence reader at an excitation wavelength of 488 nm and an emission wavelength of 525 nm in function of the time. […]

Foreskin cells [2] = assay: Lipidic peroxides (TBARS/MDA) in Foreskin cells; format: cell-based, human; conditions: 40 mM AAPH; 50 μM DHA-TG
Method: The measurement of malonildialdehyde (MDA) on cell lysates was used as a marker of lipidic peroxidation by UV-Vis spectrophotometry. The MDA and the 4-hydroxyalkenals (HAE) are products derived from the peroxidation of polyunsaturated fatty acids and related esters. Direct measurements of these aldehydes constitutes a convenient index of lipidic peroxidation. A chromogenic reagent (N-methyl-2-phenyl-indole in acetonitrile) which reacts with the MDA at 45° C. was employed, using the commercial lipidic peroxidation kit from Calbiochem (No. 437634). The condensation of one molecule of MDA with two molecules of the chromogenic reagent gives a stable chromophore with maximum absorbance at 586 nm, with the detection limit being 0.1 μM. The induction was carried out for 6 h with 40 mM AAPH and 24 hours of latency. The cells (10^7 cells/mL) were lysed by means of cycles of freezing and thawing in liquid N2. The samples were fractionated in order to measure MDA and protein. The results were expressed in μM of MDA/mg of protein.

Foreskin cells [3] = assay: Superoxide anion generation (luminol chemiluminescence) in Foreskin cells; format: cell-based, human; conditions: 40 mM AAPH, with or without DHA; 10 mM Tyron or 0.1875 UA/μl exogenous SOD
Method: Direct measurement of the superoxide anion was carried out by means of the chemiluminescence technique on microplate measured by luminol (Calbiochem, No. 574590). Chemiluminescence for detecting the superoxide anion is a technique used due to its potential for gaining access to all the intracellular sites of superoxide generation, due to the high specificity of the reaction with luminol, the minimal intracellular toxicity and the increased sensitivity in relation to other chemical techniques. It is based on the superoxide anion oxidising luminol in a reaction that produces photons of light which are quickly measured on a standard illuminometer. In our tests we used a chemiluminescence reader on microplate from ELISA, MITHRAS and furthermore, given the short half-life of the radical, an enhancer was used to increase the sensitivity of the test and amplify the response. […] The chemiluminescence measurement in the cells submitted to the AAPH oxidative stress inducing treatment was analysed every […] for a total time of 4100 seconds, at a frequency of 120 sec/cycle. […]

[4] = tested on: Foreskin cells (undifferentiated epidermal fibroblasts, CRL-2076); assay: ROS generation in Foreskin cells under xanthine/xanthine oxidase oxidative stress (CDCFDA); format: cell-based, human; conditions: 100 μM Vitamin E
Method: as §1, §2

Molecule: CCCCS(=N)(=O)CCC(N)C(=O)O (stereo not shown) [BSO, Buthionine sulfoximine, reference compound]
- effect of addition of BSO on the protective effect of DHA [1]: eliminates the protective effect of DHA

Molecule: CC/C=C\C/C=C\C/C=C\C/C=C\C/C=C\C/C=C\CCC(=O)O [DHA, docosahexaenoic acid]
- protection against lipidic peroxides (TBARS) (Foreskin cells [2]): 48%

Molecule: O=S(=O)(O)c1cc(O)c(O)c(S(=O)(=O)O)c1 [Tyron, 4,5-dihydroxy-1,3-benzene disulphonic acid, reference compound]
- production of superoxide anion in cells stressed with AAPH (Foreskin cells [3]): totally inhibited

Molecule: vitamin E [reference compound]
- inhibition of cellular oxidation [4]: 30%
